Test results published in patent US20070099890A1, “Novel cephalosporin derivatives, its pharmaceutically acceptable salts and manufacturing process thereof” (priority 2003, published 2007).
Converted amounts (≈) assume the structure as drawn. Read-outs that look alike come from different tables or passages of the source. Each block holds one molecule with its values, some of them ahead of it.

Key:
Assay in all cases: In vitro antibacterial activity test (2-fold agar dilution MIC)
Assay type in all cases: cell-based
Details in all cases: for MIC: read-out: Minimum inhibitory concentrations (MICs)
[1] = system: Staphylococcus aureus 001 (MRSA)
Method: (§1) The in vitro antibacterial activity of the compounds prepared in the Examples of the invention was determined as follows: after incubation of the corresponding bacterium for 18 h at 37° C., minimum inhibitory concentrations (MICs, μg/mL) were determined by the 2-fold agar dilution method with Mueller-Hinton Agar.

[2] = system: Staphylococcus aureus 002 (MRSA)
Method: as §1

[3] = system: Staphylococcus aureus 003 (MRSA)
Method: as §1

[4] = system: Staphylococcus aureus 004 (MRSA)
Method: as §1

[5] = system: Staphylococcus aureus 005 (MRSA)
Method: as §1

[6] = system: Staphylococcus aureus 006 (MRSA)
Method: as §1

[7] = system: Staphylococcus aureus 007 (MRSA)
Method: as §1

[8] = system: Staphylococcus aureus 008 (MRSA)
Method: as §1

[9] = system: Staphylococcus aureus 009 (MRSA)
Method: as §1

[10] = system: Staphylococcus aureus 010 (MRSA)
Method: as §1

[11] = MRSA Staphylococcus aureus 001, 2-fold agar dilution, Mueller-Hinton Agar, 18 h at 37° C.
[12] = MRSA Staphylococcus aureus 002, 2-fold agar dilution, Mueller-Hinton Agar, 18 h at 37° C.
[13] = MRSA Staphylococcus aureus 003, 2-fold agar dilution, Mueller-Hinton Agar, 18 h at 37° C.
[14] = MRSA Staphylococcus aureus 004, 2-fold agar dilution, Mueller-Hinton Agar, 18 h at 37° C.
[15] = MRSA Staphylococcus aureus 005, 2-fold agar dilution, Mueller-Hinton Agar, 18 h at 37° C.
[16] = MRSA Staphylococcus aureus 006, 2-fold agar dilution, Mueller-Hinton Agar, 18 h at 37° C.
[17] = MRSA Staphylococcus aureus 007, 2-fold agar dilution, Mueller-Hinton Agar, 18 h at 37° C.
[18] = MRSA Staphylococcus aureus 008, 2-fold agar dilution, Mueller-Hinton Agar, 18 h at 37° C.
[19] = MRSA Staphylococcus aureus 009, 2-fold agar dilution, Mueller-Hinton Agar, 18 h at 37° C.
[20] = MRSA Staphylococcus aureus 010, 2-fold agar dilution, Mueller-Hinton Agar, 18 h at 37° C.
[21] = Staphylococcus aureus, MRSA, 18 h

Minimum inhibitory concentrations (MICs) [1, 11]: 3.125 µg/mL (≈ 5.22 µM)
Minimum inhibitory concentrations (MICs) [2, 12]: 0.002 µg/mL (≈ 0.00334 µM)
Minimum inhibitory concentrations (MICs) [3, 13]: 6.250 µg/mL (≈ 10.4 µM)
Minimum inhibitory concentrations (MICs) [4, 14]: 3.125 µg/mL (≈ 5.22 µM)
Minimum inhibitory concentrations (MICs) [5, 15]: 0.098 µg/mL (≈ 0.164 µM)
Minimum inhibitory concentrations (MICs) [6, 16]: 0.004 µg/mL (≈ 0.00668 µM)
Minimum inhibitory concentrations (MICs) [7, 17]: <0.002 µg/mL
Minimum inhibitory concentrations (MICs) [8, 18]: 0.195 µg/mL (≈ 0.326 µM)
Minimum inhibitory concentrations (MICs) [9, 19]: 0.195 µg/mL (≈ 0.326 µM)
Minimum inhibitory concentrations (MICs) [10, 20]: 0.195 µg/mL (≈ 0.326 µM)
Compound: O=C(CSc1ccccc1)N[C@@H]1C(=O)N2C(C(=O)O)=C(C=Cc3cc(-c4ccc(Br)cc4)no3)CS[C@H]12 [Compound 30]

MIC [1, 11]: 25 µg/mL (≈ 54.9 µM)
MIC [2, 12]: 3.12 µg/mL (≈ 6.86 µM)
MIC [3, 13]: > 100 µg/mL
MIC [4, 14]: > 10 µg/mL
MIC [5, 15]: 6.25 µg/mL (≈ 13.7 µM)
MIC [6, 16]: 1.56 µg/mL (≈ 3.43 µM)
MIC [7, 17]: 1.56 µg/mL (≈ 3.43 µM)
MIC [8, 18]: 1.56 µg/mL (≈ 3.43 µM)
MIC [9, 19]: 6.25 µg/mL (≈ 13.7 µM)
MIC [10, 20]: 6.25 µg/mL (≈ 13.7 µM)
Compound: CO/N=C(\C(=O)N[C@@H]1C(=O)N2C(C(=O)O)=C(COC(C)=O)CS[C@H]12)c1csc(N)n1 [cefotaxime]

Compound: CN[C@H](CC(C)C)C(=O)N[C@H]1C(=O)N[C@@H](CC(N)=O)C(=O)N[C@H]2C(=O)N[C@H]3C(=O)N[C@H](C(=O)N[C@H](C(=O)O)c4cc(O)cc(O)c4-c4cc3ccc4O)[C@H](O)c3ccc(c(Cl)c3)Oc3cc2cc(c3O[C@@H]2O[C@H](CO)[C@@H](O)[C@H](O)[C@H]2O[C@H]2C[C@](C)(N)[C@H](O)[C@H](C)O2)Oc2ccc(cc2Cl)[C@H]1O [vancomycin]
MIC [1, 21]: 3.12 µg/mL (≈ 2.16 µM)
MIC [2, 21]: 1.56 µg/mL (≈ 1.08 µM)
MIC [3, 21]: 0.781 µg/mL (≈ 0.539 µM)
MIC [4, 21]: 0.781 µg/mL (≈ 0.539 µM)
MIC [5, 21]: 0.781 µg/mL (≈ 0.539 µM)
MIC [6, 21]: 0.781 µg/mL (≈ 0.539 µM)
MIC [7, 21]: 0.781 µg/mL (≈ 0.539 µM)
MIC [8, 21]: 0.781 µg/mL (≈ 0.539 µM)
MIC [9, 21]: 0.781 µg/mL (≈ 0.539 µM)
MIC [10, 21]: 0.781 µg/mL (≈ 0.539 µM)
